The record followed here is patent US10745487B2, “Method of treating cancer by administering an anti-LGR5 monoclonal antibody” (Bionomics Limited, priority 2016, dated 2020).

The test system of assay [1] is LGR5 expression in CRC cell lines. As to the kind of experiment: LGR5 expression by flow cytometry in treated CRC cell lines. As to conditions: panel DLD1, HCT116, LS174t, LoVo, SW48, SW480, SW620; 1 um, 72 hrs. It is filed as cell-based, human. The method, then: A panel of CRC cell lines including DLD1, HCT116, LS174t, LoVo, SW48, SW480 and SW620 were treated with a PI3K/mTOR dual inhibitor (NVP) or 2 different cytotoxic agents including SN38 (active metabolite of Irinotecan) or 5FU (5 fluorouracil). Cells were treated with the above agents at 1 um and were harvested after 72 hrs. Cells were then stained with anti-LGR5 Mab conjugated to Alexa Fluor647 and the data were analyzed by flow cytometry using a FACScalibur.
For orientation: A flow cytometer gives signals particle by particle.

Assay [2] concerns LGR5 expression in pancreatic cell lines. Description: LGR5 expression by flow cytometry in treated pancreatic cell lines. To be noted: panel AsPc1, HPAFII, PANC1, BxPC3, CFPAC, PANC10.05, Capan2, SW1990. It is filed as cell-based, human. The method, then: The pancreatic cell lines that were tested include: AsPc1, HPAFII, PANC1, BxPC3, CFPAC, PANC10.05, Capan2 and SW1990.
The test system of assay [3] is LGR5 expression in JH109, ASPC1 and PANC1 tumors. As to the kind of experiment: QPCR of LGR5 expression in treated pancreatic tumors. It is filed as in vivo, mice. As to conditions: standard of care: Gemzar and Abraxane in JH109, Gemzar alone in PANC1 and ASPC1. The method, then:
LGR5 expression in metastatic pancreatic patient derived xenografts was investigated using the quantitative polymerase chain reaction (QPCR). A sample of tumor tissue was flash frozen or added to a cryovial containing RNAlater (Qiagen, CA), and transferred to −70° C. after incubation at 4° C. for several hours. Total RNA was extracted using a Qiagen RNeasy extraction kit (Qiagen, CA), and cDNA was synthesized using a SuperScriptIII kit (Life Technologies, CA) and protocols provided by the manufacturer. Human LGR5 transcript abundance was measured using human specific LGR5 and GAPDH primers and the following thermal condition in the StepOne Thermocycler (Life Technologies, CA): 50° C. (2 min); 90° C. (2 min) and 40 cycles of 90° C. (15 sec) and 60° C. (1 min) and melt curve assessment (from 65° C.-95° C.). LGR5 abundance was quantified using 2^δCt equation.
LGR5 expression was investigated in a series of pancreatic tumors including JH109, ASPC1 and PANC1.

With `O=c1[nH]cc(F)c(=O)[nH]1` [5FU, 5 fluorouracil], the “LGR5 expression (flow cytometry)” value in assay [1] was “did not induce LGR5 expression in any of these lines”.
Still for that read-out and setting: as for `CCc1c2c(nc3ccc(O)cc13)-c1cc3c(c(=O)n1C2)COC(=O)[C@]3(O)CC` [SN38], the entry is “promoted LGR5 expression in HCT116, LS174t, SW48, SW480 and especially SW620 cells”.
In the case of `Nc1ccn([C@@H]2O[C@H](CO)[C@@H](O)C2(F)F)c(=O)n1` [gemcitabine, reference compound], the “LGR5 expression (flow cytometry)” value in assay [2] is “upregulates LGR5 in PANC1”. For the same molecule, the “LGR5 expression in tumors (QPCR)” value in assay [3] is “induction in LGR5 expression”.
For the molecule `CC(=O)O[C@H]1C(=O)[C@@]2(C)[C@H]([C@H](OC(=O)c3ccccc3)[C@]3(O)C[C@H](OC(=O)[C@H](O)[C@@H](NC(=O)c4ccccc4)c4ccccc4)C(C)=C1C3(C)C)[C@]1(OC(C)=O)CO[C@@H]1C[C@@H]2O` [taxol], the “LGR5 expression (flow cytometry)” value in assay [2] is “increased LGR5 expression in HPAFII”.
